# Assay: studies of the concentration at which PGG of a given purity may be safely delivered
# Settings: depends on purity of the PGG; toxic impurities gallic acid and methyl gallate
# From the text: The concentrations of PGG which may be safely delivered to a patient may be generally proportional to the purity of the PGG. For example, gallic acid, depicted in FIG. 1B, and methyl gallate, depicted in FIG. 1C, are common cytotoxic impurities which may be removed from a source batch of PGG during the purification process. Eliminating the presence of or reducing the concentration of toxic impurities from the delivered PGG may allow higher concentrations of the PGG to be delivered due to the mitigation of the toxic side effects of impurities commonly found in isolated PGG. For instance, studies have shown that substantially 100% pure PGG may be safely delivered at concentrations up to approximately 0.330% (w/v), 95% pure PGG may be safely delivered at concentrations up to approximately 0.125% (w/v), and 85% pure PGG may be safely delivered at concentrations up to approximately 0.06% (w/v). Delivery of PGG in higher concentrations may enhance the amount of uptake of PGG by the target tissue which may increase the efficacy of the PGG treatment. Delivery of PGG in higher concentrations may increase the rate of uptake of PGG by the tissue allowing the same amount of uptake in shorter delivery times. Reducing or minimizing the delivery time may be advantageous for reducing the overall treatment time, and particularly the duration of time for which a blood vessel, such as the aorta, is potentially occluded, as described elsewhere herein. Minimization of the treatment time and particularly the duration of blood occlusion may improve the safety and convenience of the treatment procedure and improve patient outcomes.
row,Substance,concentration up to which PGG may be safely delivered
1,"1,2,3,4,6-pentagalloyl glucose [95% pure PGG]",≤ 0.125 % (w/v)
2,"1,2,3,4,6-pentagalloyl glucose [substantially 100% pure PGG]",≤ 0.330 % (w/v)
3,"1,2,3,4,6-pentagalloyl glucose [85% pure PGG]",≤ 0.06 % (w/v)
